≈ marks a conversion by molar mass, not a printed value.
Columns and labels:
[1] = system: E. coli WT-3 [gyrA(S83L,D87G)]; assay: microbe, parasite or virus in culture; format: cell-based
Summary of the method: (§1)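 Inoculum: 10^4-10^6 cfu/mL from overnight culture. Medium: cation-adjusted Müller-Hinton broth. Incubation: approx. 16 h, 30-37° C. Read-out: visual, MIC at no growth.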

E. coli ΔtolC = assay: microbe, parasite or virus in culture; format: cell-based; conditions: small panel, Tables 1a/1b; no visual growth after approx. 16 h
Summary of the method: as §1

P. aeruginosa ΔmexAB = assay: microbe, parasite or virus in culture; format: cell-based; conditions: efflux-deficient strain; small panel, Tables 1a/1b
Summary of the method: as §1

A. baumannii DSM-30008 = assay: MIC, microbroth dilution susceptibility assay; format: cell-based; conditions: large panel, Table 2a
Summary of the method: as §1

C. freundii DSM-30039 = assay: MIC, microbroth dilution susceptibility assay; format: cell-based; conditions: large panel, Table 2a
Summary of the method: as §1

E. aerogenes DSM-30053 = assay: MIC, microbroth dilution susceptibility assay; format: cell-based; conditions: large panel, Table 2a
Summary of the method: as §1

E. cloacae DSM-30054 = assay: MIC, microbroth dilution susceptibility assay; format: cell-based; conditions: large panel, Table 2a
Summary of the method: as §1

E. coli WT DSM-1116 = assay: MIC, microbroth dilution susceptibility assay; format: cell-based; conditions: small panel, Tables 1a/1b; no visual growth after approx. 16 h
Summary of the method: as §1

E. coli WT = assay: MIC, microbroth dilution susceptibility assay; format: cell-based
Summary of the method: as §1

E. faecalis ATCC-29212 = assay: MIC, microbroth dilution susceptibility assay; format: cell-based; conditions: large panel, Table 2a; TSB
Summary of the method: as §1

K. pneumoniae DSM-30104 = assay: MIC, microbroth dilution susceptibility assay; format: cell-based; conditions: large panel, Table 2a
Summary of the method: as §1

P. aeruginosa DSM-24600 = assay: MIC, microbroth dilution susceptibility assay; format: cell-based; conditions: large panel, Table 2a
Summary of the method: as §1

P. aeruginosa DSM-46316 = assay: MIC, microbroth dilution susceptibility assay; format: cell-based; conditions: large panel, Table 2a
Summary of the method: as §1

P. aeruginosa WT PA14 = assay: MIC, microbroth dilution susceptibility assay; format: cell-based; conditions: small panel, Tables 1a/1b
Summary of the method: as §1

P. mirabilis DSM-2140 = assay: MIC, microbroth dilution susceptibility assay; format: cell-based; conditions: large panel, Table 2a
Summary of the method: as §1

P. vulgaris DSM-2140 = assay: MIC, microbroth dilution susceptibility assay; format: cell-based; conditions: large panel, Table 2a
Summary of the method: as §1

S. aureus ATCC-29213 = assay: MIC, microbroth dilution susceptibility assay; format: cell-based; conditions: large panel, Table 2a
Summary of the method: as §1

S. aureus Newman = assay: MIC, microbroth dilution susceptibility assay; format: cell-based; conditions: small panel, Tables 1a/1b
Summary of the method: as §1

S. epidermidis DSM-28765 = assay: MIC, microbroth dilution susceptibility assay; format: cell-based; conditions: large panel, Table 2a
Summary of the method: as §1

S. marcescens DSM-30121 = assay: MIC, microbroth dilution susceptibility assay; format: cell-based; conditions: large panel, Table 2a
Summary of the method: as §1

S. pneumoniae DSM-20566 = assay: MIC, microbroth dilution susceptibility assay; format: cell-based; conditions: large panel, Table 2a; TSB
Summary of the method: as §1

E. coli gyrase = target: T1, E. coli gyrase (Escherichia coli, UniProt P0AES4+P0AES6); assay: E. coli gyrase supercoiling (sc) assay; format: biochemical; conditions: supercoiling assay kit, agarose gel quantification; read-out: Ec gyrase sc IC50
T1 construct: purchased Inspiralis
Description: The target activity on E. coli gyrase was assessed as described in Baumann et al., Angew Chem Int Ed Engl. 2014; 53(52):14605-9 using a commercial supercoiling (sc) assay kit from Inspiralis according to the manufacturer's instructions. The samples were separated on 0.8% (w/v) agarose gels and relaxed and supercoiled plasmid was visualized by ethidium bromide staining. Half-inhibitory concentrations (IC50) were calculated after image analysis and quantification (ImageJ) based on sigmoidal curve fitting (OriginPro).

[2] = system: E. coli WT-III [marRΔ74bp]; format: cell-based; conditions: fluoroquinolone-resistant mutant; Table 2a
Description: (§2) Cystobactamid derivatives synthesized were tested against relevant Gram negative and positive bacteria of clinical interest. Experimental procedures used for the biological characterization of the compounds are the same as previously described in WO 2016/082934.
(§3) Bacterial strains used in susceptibility assays (minimum inhibitory concentration, MIC) were either part of our internal strain collection or purchased from the German Collection of Microorganisms and Cell Cultures (Deutsche Sammlung von Mikroorganismen und Zellkulturen, DSMZ) and the American Type Culture Collection (ATCC). The susceptible E. coli strain (WT) and fluoroquinolone-resistant mutants E. coli WT-3 and WT-III were kindly provided by Prof Dr. P. Heisig, Pharmaceutical Biology and Microbiology, University of Hamburg, Germany. The efflux-deficient strain P. aeruginosa ΔmexAB was kindly provided by Prof Dr. S. Häußler, Institute for Molecular Bacteriology, TWINCORE, Hannover, Germany. All compounds were prepared as DMSO stocks and MIC values were determined in standard microbroth dilution assays in 96-well MTPs as described in Baumann et al., Angew Chem Int Ed Engl. 2014; 53(52):14605-9. In brief, overnight cultures of bacteria were diluted in either tryptic soy broth (TSB: 1.7% peptone casein, 0.3% peptone soymeal, 0.25% glucose, 0.5% NaCl, 0.25% K2HPO4; pH 7.3; S. pneumoniae and E. faecalis) or cation-adjusted Müller-Hinton Broth (BBL™, BD; all other bacteria) and adjusted to 10^4-10^6 cfu/mL. Bacteria were grown in the presence of the derivatives in serial dilution for approx. 16 h at 30-37° C. MIC values were determined and were defined as the antibiotic concentration at which no visual growth of bacteria was observed.

A. baumannii = assay: MIC, microbroth dilution susceptibility assay (Table 2b); format: cell-based; conditions: larger panel
Description: as §2, §3

C. freundii = assay: as above; format: cell-based; conditions: larger panel
Description: as §2, §3

E. aerogenes = assay: as above; format: cell-based; conditions: larger panel
Description: as §2, §3

E. cloacae = assay: as above; format: cell-based; conditions: larger panel
Description: as §2, §3

E. faecalis = assay: as above; format: cell-based; conditions: larger panel
Description: as §2, §3

K. pneumoniae = assay: as above; format: cell-based; conditions: larger panel
Description: as §2, §3

P. aeruginosa ESBL 1 = assay: as above; format: cell-based; conditions: larger panel
Description: as §2, §3

P. aeruginosa ESBL 2 = assay: as above; format: cell-based; conditions: larger panel
Description: as §2, §3

P. mirabilis = assay: as above; format: cell-based; conditions: larger panel
Description: as §2, §3

P. vulgaris = assay: as above; format: cell-based; conditions: larger panel
Description: as §2, §3

S. epidermidis = assay: as above; format: cell-based; conditions: larger panel
Description: as §2, §3

S. marcescens = assay: as above; format: cell-based; conditions: larger panel
Description: as §2, §3

In the case of `CO[C@@H](C(N)=O)[C@H](NC(=O)c1ccc(NC(=O)c2ccc([N+](=O)[O-])cc2)cc1)C(=O)Nc1ccc(C(=O)Nc2ccc(C(=O)Nc3ccc(C(=O)O)cc3)c(O)c2OC(C)C)cc1` [Cys861-2, reference compound], the “MIC E. coli WT-3 [gyrA(S83L, D87G)]” value ([1]; fluoroquinolone-resistant mutant, Table 2a) is reported as 0.5 µg/mL (≈ 0.58 µM), the “MIC E. coli WT-3 [gyrA(S83L, D87G)]” value ([1]; larger panel, Table 2b) is reported as 0.5 µg/mL (≈ 0.58 µM) and the “MIC E. coli ΔtolC” value (E. coli ΔtolC) is reported as 0.125 µg/mL (≈ 0.145 µM). The “MIC P. aeruginosa ΔmexAB” value (P. aeruginosa ΔmexAB) was 0.5 µg/mL (≈ 0.58 µM), the “MIC A. baumannii DSM-30008” value (A. baumannii DSM-30008) was 0.5 µg/mL (≈ 0.58 µM) and the “MIC C. freundii DSM-30039” value (C. freundii DSM-30039) was 0.06 µg/mL (≈ 0.0696 µM). For the same compound, the “MIC E. aerogenes DSM-30053” value (E. aerogenes DSM-30053) was >64 µg/mL, the “MIC E. cloacae DSM-30054” value (E. cloacae DSM-30054) was 64 µg/mL (≈ 74.3 µM) and the “MIC E. coli WT DSM-1116” value (E. coli WT DSM-1116) was 0.125 µg/mL (≈ 0.145 µM). For the same compound, the “MIC E. coli WT” value (E. coli WT; large panel, Table 2a) was 0.13 µg/mL (≈ 0.151 µM), the “MIC E. coli WT” value (E. coli WT; larger panel, Table 2b) was 0.06 µg/mL (≈ 0.0696 µM) and the “MIC E. faecalis ATCC-29212” value (E. faecalis ATCC-29212) was 1 µg/mL (≈ 1.16 µM). For the same compound, the “MIC K. pneumoniae DSM-30104” value (K. pneumoniae DSM-30104) was >64 µg/mL, the “MIC P. aeruginosa DSM-24600” value (P. aeruginosa DSM-24600) was 1 µg/mL (≈ 1.16 µM) and the “MIC P. aeruginosa DSM-46316” value (P. aeruginosa DSM-46316) was 2 µg/mL (≈ 2.32 µM). The “MIC P. aeruginosa WT PA14” value (P. aeruginosa WT PA14) was 2 µg/mL (≈ 2.32 µM), the “MIC P. mirabilis DSM-2140” value (P. mirabilis DSM-2140) was >64 µg/mL and the “MIC P. vulgaris DSM-2140” value (P. vulgaris DSM-2140) was 0.25 µg/mL (≈ 0.29 µM). The “MIC S. aureus ATCC-29213” value (S. aureus ATCC-29213) was 0.25 µg/mL (≈ 0.29 µM), the “MIC S. aureus Newman” value (S. aureus Newman) was 0.5 µg/mL (≈ 0.58 µM) and the “MIC S. epidermidis DSM-28765” value (S. epidermidis DSM-28765) was 0.5 µg/mL (≈ 0.58 µM). The “MIC S. marcescens DSM-30121” value (S. marcescens DSM-30121) was 64 µg/mL (≈ 74.3 µM), the “MIC S. pneumoniae DSM-20566” value (S. pneumoniae DSM-20566) was 0.06 µg/mL (≈ 0.0696 µM) and the IC50 (E. coli gyrase) was 220 nM. For the same compound, the “MIC E. coli WT-III [marRΔ74bp]” value [2] was 0.5 µg/mL (≈ 0.58 µM), the “MIC A. baumannii” value (A. baumannii) was 1 µg/mL (≈ 1.16 µM) and the “MIC C. freundii” value (C. freundii) was 0.125 µg/mL (≈ 0.145 µM). For the same compound, the “MIC E. aerogenes” value (E. aerogenes) was >64 µg/mL, the “MIC E. cloacae” value (E. cloacae) was >64 µg/mL and the “MIC E. faecalis” value (E. faecalis) was 1 µg/mL (≈ 1.16 µM). For the same compound, the “MIC K. pneumoniae” value (K. pneumoniae) was >64 µg/mL, the “MIC P. aeruginosa ESBL 1” value (P. aeruginosa ESBL 1) was 4 µg/mL (≈ 4.64 µM) and the “MIC P. aeruginosa ESBL 2” value (P. aeruginosa ESBL 2) was 2 µg/mL (≈ 2.32 µM). For the same compound, the “MIC P. mirabilis” value (P. mirabilis) was 32 µg/mL (≈ 37.1 µM), the “MIC P. vulgaris” value (P. vulgaris) was 0.25 µg/mL (≈ 0.29 µM) and the “MIC S. epidermidis” value (S. epidermidis) was 0.5 µg/mL (≈ 0.58 µM). For the same compound, the “MIC S. marcescens” value (S. marcescens) was >64 µg/mL.

For `COc1c(NC(=O)c2ccc(NC(=O)c3ccc(NC(=O)[C@H](CC#N)NC(=O)c4ccc(NC(=O)/C(C)=C/c5ccc(O)cc5)cc4)cc3)c(OC)c2O)ccc(C(=O)O)c1O` [Alb, Albicidin, reference compound], the “MIC E. coli WT-3 [gyrA(S83L, D87G)]” value ([1]; larger panel, Table 2b) was 0.06 µg/mL (≈ 0.0712 µM), the “MIC E. coli WT” value (E. coli WT; larger panel, Table 2b) was 0.06 µg/mL (≈ 0.0712 µM) and the “MIC A. baumannii” value (A. baumannii) was >64 µg/mL. For the same compound, the “MIC C. freundii” value (C. freundii) was <0.03 µg/mL, the “MIC E. aerogenes” value (E. aerogenes) was >64 µg/mL and the “MIC E. cloacae” value (E. cloacae) was >64 µg/mL. The “MIC E. faecalis” value (E. faecalis) was 4 µg/mL (≈ 4.75 µM), the “MIC K. pneumoniae” value (K. pneumoniae) was >64 µg/mL and the “MIC P. aeruginosa ESBL 1” value (P. aeruginosa ESBL 1) was 16 µg/mL (≈ 19 µM). The “MIC P. aeruginosa ESBL 2” value (P. aeruginosa ESBL 2) was 16 µg/mL (≈ 19 µM), the “MIC P. mirabilis” value (P. mirabilis) was >64 µg/mL and the “MIC P. vulgaris” value (P. vulgaris) was <0.03 µg/mL. The “MIC S. epidermidis” value (S. epidermidis) was 0.5 µg/mL (≈ 0.593 µM) and the “MIC S. marcescens” value (S. marcescens) was >64 µg/mL.

Source: patent US11034648B2, “Cystobactamide derivatives” (priority 2017, dated 2021)
